From patent publication US9890147B2 (BAYER PHARMA AKTIENGESELLSCHAFT, priority 2012, dated 2018)

Columns and labels:
BRD4 (BD1) = target: T1, BRD4 (BD1) (Homo sapiens, UniProt O60885); assay: Binding assay BRD4/acetylated peptide H4 (TR-FRET protein-protein interaction assay)
T1 construct: with relatively long constructs also being possible, preferably amino acids 44-168; made in house; host or cells: E. coli
Summary of the method: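 His6-BRD4 BD1 (aa 67-152, E. coli), usually 10 nM, with biotinylated tetra-acetylated H4 peptide in HEPES pH 7.5 buffer; 11 compound concentrations 0.1 nM–20 μM in duplicate, 10 min preincubation, 1 h at 22 °C then ≥3 h at 4 °C. TR-FRET 665/620 ratio; IC50 by 4-parameter fit.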

MOLM-13 cells = assay: Cell proliferation assay (alamarBlue), MOLM-13; assay type: cell-based; conditions: Homo sapiens, 96 hours incubation, inhibition of cell proliferation
Summary of the method: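 Cells in RPMI1640/10% FCS read by alamarBlue fluorescence (ex 530, em 590 nm) after overnight 37 °C incubation, then treated at 1E-5 to 1E-8 M for 96 h. Pre-treatment values subtracted from endpoint values and compared with buffer-only wells; IC50 is 50% proliferation inhibition.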

CNC(=O)N1N=C(c2ccc(-n3nc(C(F)(F)F)cc3C)cc2)c2cc(OC)c(OC)cc2CC1C (racemic) [Example 151, (±)-7,8-dimethoxy-N,4-dimethyl-1-{4-[5-methyl-3-(trifluoromethyl)-1H-pyrazol-1-yl]phenyl}-4,5-dihydro-3H-2,3-benzodiazepine-3-carboxamide]
IC50 (BRD4 (BD1)): 20 nM | IC50 (MOLM-13 cells): 1310 nM

CNC(=O)N1N=C(c2ccc(-n3cncn3)cc2)c2cc(OC)c(OC)cc2CC1C (racemic) [Example 152, (±)-7,8-Dimethoxy-N,4-dimethyl-1-[4-(1H-1,2,4-triazol-1-yl)phenyl]-4,5-dihydro-3H-2,3-benzodiazepine-3-carboxamide]
IC50 (BRD4 (BD1)): 70 nM | IC50 (MOLM-13 cells): 430 nM

CNC(=O)N1N=C(c2ccc(-n3ncnc3C)cc2)c2cc(OC)c(OC)cc2CC1C (racemic) [Example 153, (±)-7,8-dimethoxy-N,4-dimethyl-1-[4-(5-methyl-1H-1,2,4-triazol-1-yl)phenyl]-4,5-dihydro-3H-2,3-benzodiazepine-3-carboxamide]
IC50 (BRD4 (BD1)): 110 nM | IC50 (MOLM-13 cells): 480 nM

CNC(=O)N1N=C(c2ccc(-n3nc(C)nc3C)cc2)c2cc(OC)c(OC)cc2CC1C (racemic) [Example 154, (±)-1-[4-(3,5-dimethyl-1H-1,2,4-triazol-1-yl)phenyl]-7,8-dimethoxy-N,4-dimethyl-4,5-dihydro-3H-2,3-benzodiazepine-3-carboxamide]
IC50 (BRD4 (BD1)): 170 nM | IC50 (MOLM-13 cells): 2080 nM

CNC(=O)N1N=C(c2ccc(-c3c(C)noc3C)cc2)c2cc(C(C)(C)C)ccc2CC1C (racemic) [Example 155, (±)-8-tert-Butyl-1-[4-(3,5-dimethylisoxazol-4-yl)phenyl]-N,4-dimethyl-4,5-dihydro-3H-2,3-benzodiazepine-3-carboxamide]
IC50 (BRD4 (BD1)): 40 nM | IC50 (MOLM-13 cells): 380 nM

CNC(=O)N1N=C(c2ccc(-c3c(C)noc3C)cc2)c2cc(OC(F)(F)F)c(Cl)cc2CC1C (racemic) [Example 156, (±)-7-Chloro-1-[4-(3,5-dimethylisoxazol-4-yl)phenyl]-N,4-dimethyl-8-(trifluoromethoxy)-4,5-dihydro-3H-2,3-benzodiazepine-3-carboxamide]
IC50 (BRD4 (BD1)): 230 nM | IC50 (MOLM-13 cells): 790 nM

CNC(=O)N1N=C(c2ccc(-c3c(C)noc3C)cc2)c2cc(C)ccc2CC1C (racemic) [Example 158, (±)-1-[4-(3,5-dimethylisoxazol-4-yl)phenyl]-N,4,8-trimethyl-4,5-dihydro-3H-2,3-benzodiazepine-3-carboxamide]
IC50 (BRD4 (BD1)): 60 nM | IC50 (MOLM-13 cells): 430 nM

CNC(=O)N1N=C(c2ccc(-c3c(C)noc3C)cc2)c2cc(OC(F)F)c(OC(F)F)cc2CC1C (racemic) [Example 160, (±)-7,8-Bis(difluoromethoxy)-1-[4-(3,5-dimethylisoxazol-4-yl)phenyl]-N,4-dimethyl-4,5-dihydro-3H-2,3-benzodiazepine-3-carboxamide]
IC50 (BRD4 (BD1)): 260 nM | IC50 (MOLM-13 cells): 400 nM

CCOc1cc2c(cc1OCC)C(c1ccc(-c3c(C)noc3C)cc1)=NN(C(=O)NC)C(C)C2 (racemic) [Example 161, (±)-1-[4-(3,5-Dimethylisoxazol-4-yl)phenyl]-7,8-diethoxy-N,4-dimethyl-4,5-dihydro-3H-2,3-benzodiazepine-3-carboxamide]
IC50 (BRD4 (BD1)): 110 nM | IC50 (MOLM-13 cells): 280 nM

CNC(=O)N1N=C(c2ccc(-c3c(C)noc3C)cc2)c2cc(OC)c(OC(F)F)cc2CC1C (racemic) [Example 162, (±)-7-(difluoromethoxy)-1-[4-(3,5-dimethylisoxazol-4-yl)phenyl]-8-methoxy-N,4-dimethyl-4,5-dihydro-3H-2,3-benzodiazepine-3-carboxamide]
IC50 (BRD4 (BD1)): 130 nM | IC50 (MOLM-13 cells): 380 nM

CNC(=O)N1N=C(c2ccc(N3CCN(C)CC3)cc2)c2cc(OC)c(OC(F)F)cc2CC1C (racemic) [Example 163, (±)-7-(difluoromethoxy)-8-methoxy-N,4-dimethyl-1-[4-(4-methylpiperazin-1-yl)phenyl]-4,5-dihydro-3H-2,3-benzodiazepine-3-carboxamide]
IC50 (BRD4 (BD1)): 60 nM | IC50 (MOLM-13 cells): 210 nM

CNC(=O)N1N=C(c2ccc(Cl)cc2)c2cc(OCCCN3CCN(C)CC3)ccc2CC1C (racemic) [Example 164, (±)-1-(4-chlorophenyl)-N,4-dimethyl-8-[3-(4-methylpiperazin-1-yl)propoxy]-4,5-dihydro-3H-2,3-benzodiazepine-3-carboxamide]
IC50 (BRD4 (BD1)): 60 nM | IC50 (MOLM-13 cells): 580 nM

CNC(=O)N1N=C(c2ccc(Cl)cc2)c2cc(OCCCN3CCOCC3)ccc2CC1C (racemic) [Example 165, (±)-1-(4-chlorophenyl)-N,4-dimethyl-8-[3-(morpholin-4-yl)propoxy]-4,5-dihydro-3H-2,3-benzodiazepine-3-carboxamide]
IC50 (BRD4 (BD1)): 130 nM | IC50 (MOLM-13 cells): 880 nM

CNC(=O)N1N=C(c2ccc(Cl)cc2)c2cc(OCCN3CCN(C)CC3)ccc2CC1C (racemic) [Example 166, (±)-1-(4-chlorophenyl)-N,4-dimethyl-8-[2-(4-methylpiperazin-1-yl)ethoxy]-4,5-dihydro-3H-2,3-benzodiazepine-3-carboxamide]
IC50 (BRD4 (BD1)): 270 nM | IC50 (MOLM-13 cells): 670 nM

CNC(=O)N1N=C(c2ccc(-c3c(C)noc3C)cc2)c2cc(OC)c(C#N)cc2CC1C (racemic) [Example 170, (±)-7-Cyano-1-[4-(3,5-dimethylisoxazol-4-yl)phenyl]-8-methoxy-N,4-dimethyl-4,5-dihydro-3H-2,3-benzodiazepine-3-carboxamide]
IC50 (BRD4 (BD1)): 70 nM | IC50 (MOLM-13 cells): 520 nM

CNC(=O)N1N=C(c2ccc(N3CCOCC3)cc2)c2cc(NC(C)=O)ccc2CC1C (racemic) [Example 171, (±)-8-Acetamido-N,4-dimethyl-1-[4-(morpholin-4-yl)phenyl]-4,5-dihydro-3H-2,3-benzodiazepine-3-carboxamide]
IC50 (BRD4 (BD1)): 120 nM | IC50 (MOLM-13 cells): 1910 nM

CNC(=O)N1N=C(c2ccc(N3CCN(C)CC3)cc2)c2cc(NC(C)=O)ccc2CC1C (racemic) [Example 172, (±)-8-Acetamido-N,4-dimethyl-1-[4-(4-methylpiperazin-1-yl)phenyl]-4,5-dihydro-3H-2,3-benzodiazepine-3-carboxamide]
IC50 (BRD4 (BD1)): 130 nM | IC50 (MOLM-13 cells): 1910 nM

CNC(=O)N1N=C(c2ccc(-c3c(C)noc3C)cc2)c2cc(NC(C)=O)ccc2CC1C (racemic) [Example 173, (±)-8-Acetamido-1-[4-(3,5-dimethylisoxazol-4-yl)phenyl]-N,4-dimethyl-4,5-dihydro-3H-2,3-benzodiazepine-3-carboxamide]
IC50 (BRD4 (BD1)): 180 nM | IC50 (MOLM-13 cells): 1210 nM

CNC(=O)N1N=C(c2ccc(-c3c(C)noc3C)cc2)c2cc(-n3nc(C)cc3C)ccc2CC1C (racemic) [Example 175, (±)-1-[4-(3,5-Dimethylisoxazol-4-yl)phenyl]-8-(3,5-dimethyl-1H-pyrazol-1-yl)-N,4-dimethyl-4,5-dihydro-3H-2,3-benzodiazepine-3-carboxamide]
IC50 (BRD4 (BD1)): 190 nM | IC50 (MOLM-13 cells): 440 nM

CNC(=O)N1N=C(c2ccc(-c3c(C)noc3C)cc2)c2cc(N3CCOCC3)ccc2CC1C (racemic) [Example 176, (±)-1-[4-(3,5-Dimethylisoxazol-4-yl)phenyl]-N,4-dimethyl-8-(morpholin-4-yl)-4,5-dihydro-3H-2,3-benzodiazepine-3-carboxamide]
IC50 (BRD4 (BD1)): 40 nM | IC50 (MOLM-13 cells): 520 nM

CNC(=O)N1N=C(c2ccc(N3CCN(CCO)CC3)cc2)c2cc(OC)c(OC)cc2CC1C (racemic) [Example 178, (±)-1-{4-[4-(2-hydroxyethyl)piperazin-1-yl]phenyl}-7,8-dimethoxy-N,4-dimethyl-4,5-dihydro-3H-2,3-benzodiazepine-3-carboxamide]
IC50 (BRD4 (BD1)): 70 nM | IC50 (MOLM-13 cells): 180 nM

CNC(=O)N1N=C(c2ccc(N3CCC(OC)CC3)cc2)c2cc(OC)c(OC)cc2CC1C (racemic) [Example 179, (±)-7,8-dimethoxy-1-[4-(4-methoxypiperidin-1-yl)phenyl]-N,4-dimethyl-4,5-dihydro-3H-2,3-benzodiazepine-3-carboxamide]
IC50 (BRD4 (BD1)): 70 nM | IC50 (MOLM-13 cells): 290 nM

CNC(=O)N1N=C(c2ccc(N3CCC(N(C)C)CC3)cc2)c2cc(OC)c(OC)cc2CC1C (racemic) [Example 180, (±)-1-{4-[4-(dimethylamino)piperidin-1-yl]phenyl}-7,8-dimethoxy-N,4-dimethyl-4,5-dihydro-3H-2,3-benzodiazepine-3-carboxamide]
IC50 (BRD4 (BD1)): 70 nM | IC50 (MOLM-13 cells): 370 nM

CNC(=O)N1N=C(c2ccc(N3CCC(NC(C)=O)CC3)cc2)c2cc(OC)c(OC)cc2CC1C (racemic) [Example 182, (±)-1-[4-(4-acetamidopiperidin-1-yl)phenyl]-7,8-dimethoxy-N,4-dimethyl-4,5-dihydro-3H-2,3-benzodiazepine-3-carboxamide]
IC50 (BRD4 (BD1)): 50 nM | IC50 (MOLM-13 cells): 400 nM

CNC(=O)N1N=C(c2ccc(N3CC[C@H](O)C3)cc2)c2cc(OC)c(OC)cc2CC1C (mixture of isomers) [Example 190, (±)-1-{4-[(3S)-3-hydroxypyrrolidin-1-yl]phenyl}-7,8-dimethoxy-N,4-dimethyl-4,5-dihydro-3H-2,3-benzodiazepine-3-carboxamide]
IC50 (BRD4 (BD1)): 90 nM | IC50 (MOLM-13 cells): 80 nM

CNC(=O)N1N=C(c2ccc(N3CCC(C)(NC(=O)OC(C)(C)C)CC3)cc2)c2cc(OC)c(OC)cc2CC1C (racemic) [Example 191, (±)-tert-butyl (1-{4-[7,8-dimethoxy-4-methyl-3-(methylcarbamoyl)-4,5-dihydro-3H-2,3-benzodiazepin-1-yl]phenyl}-4-methylpiperidin-4-yl)carbamate]
IC50 (BRD4 (BD1)): 70 nM | IC50 (MOLM-13 cells): 170 nM
